In patent publication US20080269241A1, “BICYCLIC AMINOPROPYL TETRAHYDRO-PYRAZOLO-PYRIDINE MODULATORS OF CATHEPSIN S” (priority 2007, published 2008) one finds IC50 data, which are given here for two compounds.

For the assay, the target named is T1, human cathepsin S (CatS) (Homo sapiens, UniProt P25774).
T1 construct: made in house; host or cells: baculovirus system (insect cells)
Put plainly: Recombinant human cathepsin S (CatS) fluorogenic substrate inhibition assay. The conditions noted are these: recombinant human CatS, 10 μM Z-Valine-Valine-Arginine-AMC, pH 5.0; average of results obtained; read-out: CatS IC50. It counts as biochemical. The method, then:
Recombinant human cathepsin S (CatS) was expressed in the baculovirus system and purified in one step with a thiopropyl-sepharose column. […] The assay is run in 150 mM sodium acetate pH 5.0 containing 1.5 mM DTT and 150 mM NaCl. […] Measurements are taken every min for 20 min. The rate is calculated from the slope of the increase in fluorescence and the percent inhibition is calculated from this.

T1 sequence (P25774 115-331): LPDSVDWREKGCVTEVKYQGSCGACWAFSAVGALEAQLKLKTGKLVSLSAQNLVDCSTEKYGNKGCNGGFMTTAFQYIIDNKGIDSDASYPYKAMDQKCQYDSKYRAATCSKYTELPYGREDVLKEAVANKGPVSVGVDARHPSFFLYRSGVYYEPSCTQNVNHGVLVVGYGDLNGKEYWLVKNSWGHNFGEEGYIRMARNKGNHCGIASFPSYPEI

On to `CS(=O)(=O)N1CCc2c(c(-c3ccc(C(F)(F)F)c(CNC(=O)c4ccc5[nH]c(=O)[nH]c5c4)c3)nn2CC(O)CN2CCC(N3CCCC3=O)CC2)C1` (centres unmarked) [Example 120, 2-Oxo-2,3-dihydro-1H-benzoimidazole-5-carboxylic acid 5-(1-{2-hydroxy-3-[4-(2-oxo-pyrrolidin-1-yl)-piperidin-1-yl]-propyl}-5-methanesulfonyl-4,5,6,7-tetrahydro-1H-pyrazolo[4,3-c]pyridin-3-yl)-2-trifluoromethyl-benzylamide], for which the half-inhibitory concentration (IC50) came out at 0.14 µM.

With `Cn1cncc1C(=O)NCc1cc(-c2nn(CC(O)CN3CCC(N4CCCC4=O)CC3)c3c2CN(S(C)(=O)=O)CC3)ccc1C(F)(F)F` (centres unmarked) [Example 133, 3-Methyl-3H-imidazole-4-carboxylic acid 5-(1-{2-hydroxy-3-[4-(2-oxo-pyrrolidin-1-yl)-piperidin-1-yl]-propyl}-5-methanesulfonyl-4,5,6,7-tetrahydro-1H-pyrazolo[4,3-c]pyridin-3-yl)-2-trifluoromethyl-benzylamide], the 50% inhibitory concentration (IC50) was 0.38 µM.
